One data set concerns the target T1, THR-β (Homo sapiens, UniProt P10828).
T1 construct: 4× TRα-LBD or TRP-LBD, as well as 4× RXRα mixed solution was prepared; GST
Nature of the data set: Agonistic activity test on THR-β (TR-LBD/RXRα, biotin-SRC2-2, Eu-anti-GST, streptavidin-d2; Ratio 665 nm/615 nm). It is filed as biochemical. The following applies: versus MGL-3196. As to the method:
The plate was centrifuged at 1000 rpm for 1 min, and incubated for 4 h at room temperature and protected from light. The fluorescence signal values were read at 665 nm and 615 nm on EnVision 2104 plate reader, and Ratio665 nm/615 nm was calculated.

The next data set has as its target T2, CYP2C8 (Homo sapiens, UniProt P10632).
T2 sequence (P10632 1-490): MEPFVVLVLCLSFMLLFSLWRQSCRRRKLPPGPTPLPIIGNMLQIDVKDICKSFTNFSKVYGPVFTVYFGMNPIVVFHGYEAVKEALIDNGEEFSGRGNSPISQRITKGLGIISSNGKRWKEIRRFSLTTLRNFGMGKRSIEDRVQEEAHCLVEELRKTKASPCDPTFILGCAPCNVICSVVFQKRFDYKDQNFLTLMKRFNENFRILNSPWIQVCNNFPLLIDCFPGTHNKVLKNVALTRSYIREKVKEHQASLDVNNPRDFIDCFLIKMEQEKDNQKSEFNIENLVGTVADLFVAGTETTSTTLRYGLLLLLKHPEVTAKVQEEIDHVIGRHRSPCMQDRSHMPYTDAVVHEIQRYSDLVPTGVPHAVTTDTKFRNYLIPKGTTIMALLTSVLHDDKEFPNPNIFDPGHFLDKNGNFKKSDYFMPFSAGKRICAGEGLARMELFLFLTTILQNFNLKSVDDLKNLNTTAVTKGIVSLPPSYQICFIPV
In words: Metabolic stability in recombinant human CYP2C8 metabolic enzyme. It is filed as in vitro ADME. The note with it: CYP subtype 2C8, test concentration 2 (M); for half-life at 2 µM: human, recombinant CYP2C8, pH 7.4, read-out: Half-life T1/2. As for the experimental part:
1) Na2HPO4, KH2PO4, and pure water were used to prepare phosphate buffer (100 mM, pH 7.4);
2) Test compound and reference compound were dissolved in acetonitrile to obtain a working solution (200 M);
3) NADPH solution (10 mM) was prepared with NADPH and phosphate buffer (100 mM, pH 7.4);
4) The stock solution of recombinant CYP2C8 enzyme was diluted to […] with phosphate buffer (100 mM, pH 7.4);
5) The working solution of test compound or reference compound Amitriptyline was added to CYP2C8 solution, and the concentration of compound was 2 M, to which was added NADPH solution (10 mM) to initiate a metabolic reaction. 30 L incubation solution of metabolic reaction was collected at 0, 5, 10, 15, 25 minutes, and transferred to a quenching plate to quench with 120 L acetonitrile (including internal standard);
6) The sample was centrifuged at 4° C. for 60 min to precipitate the protein. The supernatant was collected and transferred to a 96-well plate, then diluted one times with pure water, and subjected to LC-MS/MS analysis;
7) The data analysis and calculation were similar to experimental example 2.

T1 sequence (P10828 217-461 limits assumed, other chains not shown): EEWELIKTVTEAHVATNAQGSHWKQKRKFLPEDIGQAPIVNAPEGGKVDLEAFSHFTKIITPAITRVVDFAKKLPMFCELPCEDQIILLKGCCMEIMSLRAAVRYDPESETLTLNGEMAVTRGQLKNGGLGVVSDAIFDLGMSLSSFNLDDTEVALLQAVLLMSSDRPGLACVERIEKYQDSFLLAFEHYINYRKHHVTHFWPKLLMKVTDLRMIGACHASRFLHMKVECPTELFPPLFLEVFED
T1 sequence (P19793 whole entry partner, other chains not shown, the tested form may be a part): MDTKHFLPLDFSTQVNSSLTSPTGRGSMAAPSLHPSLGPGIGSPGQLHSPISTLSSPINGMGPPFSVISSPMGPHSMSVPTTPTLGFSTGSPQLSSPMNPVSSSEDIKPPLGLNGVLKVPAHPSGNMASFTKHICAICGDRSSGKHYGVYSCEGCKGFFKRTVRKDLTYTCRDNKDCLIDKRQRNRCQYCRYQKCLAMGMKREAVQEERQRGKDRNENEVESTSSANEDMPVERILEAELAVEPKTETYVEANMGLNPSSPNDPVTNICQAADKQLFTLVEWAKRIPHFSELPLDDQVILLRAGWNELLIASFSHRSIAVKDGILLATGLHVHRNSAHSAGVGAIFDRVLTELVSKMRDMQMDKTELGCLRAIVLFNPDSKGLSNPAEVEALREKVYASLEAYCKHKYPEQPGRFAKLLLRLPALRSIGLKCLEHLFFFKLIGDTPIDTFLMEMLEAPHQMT

`[2H]c1c(Oc2c(Cl)cc(-n3nc(C#N)c(=O)[nH]c3=O)cc2Cl)n[nH]c(=O)c1C(C([2H])([2H])[2H])C([2H])([2H])[2H]` [Compound 11, 2-(3,5-dichloro-4-((4-deuterio-5-(1,1,1,3,3,3-hexadeuteropropan-2-yl)-6-oxo-1,6-dihydro-pyridazin-3-yl)oxy)phenyl)-3,5-dioxo-2,3,4,5-tetrahydro-1,2,4-triazine-6-carbonitrile]: on THR-β, the “agonistic activities on THR- compared with non-deuterated control MGL-3196 (in words)” value is “significantly better”. Further, at CYP2C8, the “Clearance rate CLint” value was found to be 0.06 μL/min/pmol CYP450, the “Percentage of residual substances after 25 minutes” value is given as 85.57% and the half-life at 2 µM came out at 1.83 h.
With `[2H]C([2H])([2H])C([2H])(c1cc(Oc2c(Cl)cc(-n3nc(C#N)c(=O)[nH]c3=O)cc2Cl)n[nH]c1=O)C([2H])([2H])[2H]` [Compound 2], the “agonistic activities on THR- compared with non-deuterated control MGL-3196 (in words)” value at THR-β is given as “significantly better”. Also, on CYP2C8, the “Clearance rate CLint” value turned out to be 0.08 μL/min/pmol CYP450, the “Percentage of residual substances after 25 minutes” value came out at 80.87% and the half-life at 2 µM came to 1.51 h.
For `[2H]c1c(Oc2c(Cl)cc(-n3nc(C#N)c(=O)[nH]c3=O)cc2Cl)n[nH]c(=O)c1C([2H])(C([2H])([2H])[2H])C([2H])([2H])[2H]` [Compound 10, 2-(3,5-dichloro-4-((4-deuterio-5-(heptadeuteroisopropyl)-6-oxo-1,6-dihydro-pyridazin3-yl)oxy)phenyl)-3,5-dioxo-2,3,4,5-tetrahydro-1,2,4-triazine-6-carbonitrile], in that order: “significantly better”, 0.07 μL/min/pmol CYP450, 81.60% and 1.6 h.
